Test [1] has as its system Vero. Kind of test: Cytotoxicity against African green monkey Vero cells by GFP based microplate assay. In kind it is cell-based. Conditions: Chlorocebus sabaeus.
The subject of test [2] is Mycobacterium tuberculosis. Kind of test: Antitubercular activity against Mycobacterium tuberculosis H37Ra by GFP based microplate assay. In kind it is functional.
The subject of test [3] is Mycobacterium tuberculosis. Kind of test: Antitubercular activity against Mycobacterium tuberculosis H37Ra. In kind it is functional.
Test [4] deals with Vero. Put plainly: Cytotoxicity against African green monkey Vero cells. Conditions: Chlorocebus sabaeus. In kind it is cell-based.

≈ marks a conversion by molar mass, not a printed value.

In general, IC50 refers to the point on the concentration scale where inhibition reaches its midpoint. As a reminder, the MIC is the lowest concentration found to suppress growth. Turning to `CC(=O)O[C@H]1C[C@H]([C@H](C)CC/C=C(\C)C(=O)O)[C@@]2(C)CC=C3C(=CC[C@H]4C(C)(C)C(=O)CC[C@]34C)[C@]12C`, in the test with Vero [1], the IC50 is > 98 µM. Moreover, inhibition of growth in test [2] (MIC) required 12.5 µg/mL (≈ 24.5 µM).
In the test with Vero [1], `CC(=O)O[C@@H](C/C=C(\C)C(=O)O)[C@@H](C)[C@H]1C[C@H](OC(C)=O)[C@@]2(C)C3=C(CC[C@]12C)[C@@]1(C)CC[C@@H](OC(C)=O)C(C)(C)[C@@H]1C[C@H]3O` showed an IC50 of 28 µM. The compound also showed an MIC in test [2] of 12.5 µg/mL (≈ 19.8 µM).
On the same counts, the results for `C/C(=C\C[C@H](O)[C@@H](C)[C@H]1CC[C@@]2(C)C3=C(CC[C@]12C)[C@@]1(C)CCC(=O)C(C)(C)[C@@H]1CC3)C(=O)O` are 105 µM and 50 µg/mL (≈ 106 µM).
Taken in the same sequence, the figures for `CO[C@@H]1C[C@H]2C(C)(C)[C@H](OC(C)=O)CC[C@]2(C)C2=C1[C@]1(C)[C@@H](O)C[C@H]([C@H](C)CC/C=C(\C)C(=O)O)[C@@]1(C)CC2` were 87 µM and 50 µg/mL (≈ 91.8 µM).
Taken in the same sequence, the figures for `CC(=O)O[C@H]1C[C@H]([C@H](C)CC/C=C(\C)C(=O)O)[C@@]2(C)CCC3=C([C@H](O)C[C@H]4C(C)(C)C(=O)CC[C@]34C)[C@]12C` were > 95 µM and 50 µg/mL (≈ 94.6 µM).
Compound `CC(=O)O[C@@H](C/C=C(\C)C(=O)O)[C@@H](C)[C@H]1CC[C@@]2(C)C3=C(CC[C@]12C)[C@@]1(C)CC[C@H](OC(C)=O)C(C)(C)[C@@H]1C[C@H]3O` registered a concentration for half-maximal inhibition (IC50) with Vero [1] of 84 µM. The same compound registered an MIC in test [2] of 25 µg/mL (≈ 43.6 µM).
On the same counts, the results for `CO[C@@H]1C[C@H]2C(C)(C)[C@H](OC(C)=O)CC[C@]2(C)C2=C1[C@]1(C)CC[C@H]([C@H](C)[C@H](C/C=C(\C)C(=O)O)OC(C)=O)[C@@]1(C)CC2` are 38 µM and 50 µg/mL (≈ 85.2 µM).
On the same counts, the results for `CO[C@@H]1C[C@H]2C(C)(C)[C@@H](OC(C)=O)CC[C@]2(C)C2=C1[C@]1(C)[C@@H](OC(C)=O)C[C@H]([C@H](C)CC/C=C(\C)C(=O)O)[C@@]1(C)CC2` are 30 µM and 3.13 µg/mL (≈ 5.33 µM).
In the case of `CC(=O)O[C@H]1CC[C@]2(C)C3=CC[C@]4(C)[C@@H]([C@H](C)CC/C=C(\C)C(=O)O)C[C@H](O)[C@@]4(C)C3=CC[C@H]2C1(C)C`, 13 µM corresponded to half-maximal inhibition in the test with Vero [1] (IC50). Further, it took 6.25 µg/mL (≈ 12.2 µM) to inhibit growth in test [2] (MIC).
On the same counts, the results for `CC(=O)O[C@@H](C/C=C(\C)C(=O)O)[C@@H](C)[C@H]1C[C@H](OC(C)=O)[C@@]2(C)C3=CC[C@H]4C(C)(C)C(=O)CC[C@]4(C)C3=CC[C@]12C` are 87 µM and 25 µg/mL (≈ 44 µM).
On the same counts, the results for `CC(=O)O[C@H]1C[C@H]([C@H](C)CC/C=C(\C)C(=O)O)[C@@]2(C)CCC3=C(CC[C@H]4C(C)(C)C(=O)CC[C@]34C)[C@]12C` are > 98 µM and 50 µg/mL (≈ 97.5 µM).
On the same counts, the results for `CC(=O)O[C@@H](C/C=C(\C)C(=O)O)[C@@H](C)[C@H]1C[C@H](O)[C@@]2(C)C3=C(CC[C@]12C)[C@@]1(C)CC[C@H](OC(C)=O)C(C)(C)[C@@H]1C[C@H]3O` are 83 µM and 12.5 µg/mL (≈ 21.2 µM).
In test [3], `CO[C@@H]1C[C@H]2C(C)(C)[C@@H](OC(C)=O)CC[C@]2(C)C2=C1[C@]1(C)[C@@H](O)C[C@H]([C@H](C)[C@H](C/C=C(\C)C(=O)O)OC(C)=O)[C@@]1(C)CC2` showed an MIC of 50 µg/mL (≈ 82.9 µM). Further, half-maximal inhibition in the test with Vero [4] (IC50) required 32 µM.
In the test with Vero [1], `CC(=O)O[C@H]1C[C@H]([C@H](C)CC/C=C(\C)C(=O)O)[C@@]2(C)CC=C3C(=CC[C@H]4C(C)(C)[C@H](O)CC[C@]34C)[C@]12C` yielded an IC50 of 94 µM. Further, in test [2], the MIC came to 25 µg/mL (≈ 48.8 µM).
Regarding `CO[C@@H]1C[C@H]2C(C)(C)C(=O)CC[C@]2(C)C2=C1[C@]1(C)[C@@H](OC(C)=O)C[C@H]([C@H](C)[C@H](C/C=C(\C)C(=O)O)OC(C)=O)[C@@]1(C)CC2`, in the test on Vero [1], the IC50 was > 83 µM. Moreover, the MIC in test [2] is > 50 µg/mL.
Taken in the same sequence, the figures for `CC(=O)O[C@@H](C/C=C(\C)C(=O)O)[C@@H](C)[C@H]1CC[C@@]2(C)C3=CC[C@H]4C(C)(C)[C@H](OC(C)=O)CC[C@]4(C)C3=CC[C@]12C` were 32 µM and 50 µg/mL (≈ 90.1 µM).
On the same counts, the results for `CC(=O)O[C@H]1CC[C@]2(C)C3=CC[C@]4(C)[C@@H]([C@H](C)CC/C=C(\C)C(=O)O)C[C@H](OC(C)=O)[C@@]4(C)C3=CC[C@H]2C1(C)C` are 32 µM and 0.391 µg/mL (≈ 0.705 µM).
On the same counts, the results for `CC(=O)O[C@H]1CC[C@]2(C)C3=C([C@H](OC(C)=O)C[C@H]2C1(C)C)[C@]1(C)[C@@H](O)C[C@H]([C@H](C)CC/C=C(\C)C(=O)O)[C@@]1(C)CC3` are 31 µM and 25 µg/mL (≈ 43.6 µM).
For `CC(=O)O[C@H]1C[C@H]([C@H](C)CC/C=C(\C)C(=O)O)[C@@]2(C)CCC3=C(CC[C@H]4C(C)(C)[C@@H](O)CC[C@]34C)[C@]12C`, the IC50 with Vero [1] is > 96 µM. Also, in test [2], it took 12.5 µg/mL (≈ 24.3 µM) to inhibit growth (MIC).
On the same counts, the results for `CC(=O)O[C@@H](C/C=C(\C)C(=O)O)[C@@H](C)[C@H]1C[C@H](O)[C@@]2(C)C3=C(CC[C@]12C)[C@@]1(C)CCC(=O)C(C)(C)[C@@H]1C[C@H]3O` are > 92 µM and > 50 µg/mL.
Taken in the same sequence, the figures for `CC(=O)O[C@@H](C/C=C(\C)C(=O)O)[C@@H](C)[C@H]1C[C@H](OC(C)=O)[C@@]2(C)C3=CC[C@H]4C(C)(C)[C@@H](O)CC[C@]4(C)C3=CC[C@]12C` were 33 µM and > 50 µg/mL.
`CO[C@@H]1C[C@H]2C(C)(C)C(=O)CC[C@]2(C)C2=C1[C@]1(C)CC[C@H]([C@H](C)CC/C=C(\C)C(=O)O)[C@@]1(C)CC2`: the half-inhibitory concentration (IC50) in the test with Vero [1] is > 103 µM. This compound also had an MIC in test [2] of 25 µg/mL (≈ 51.6 µM).
Taken in the same sequence, the figures for `CO[C@@H]1C[C@H]2C(C)(C)[C@H](OC(C)=O)CC[C@]2(C)C2=C1[C@]1(C)[C@@H](OC(C)=O)C[C@H]([C@H](C)CC/C=C(\C)C(=O)O)[C@@]1(C)CC2` were > 85 µM and 50 µg/mL (≈ 85.2 µM).
Taken in the same sequence, the figures for `CC(=O)O[C@H]1CC[C@]2(C)C3=C(C(=O)C[C@H]2C1(C)C)[C@]1(C)[C@@H](O)C[C@H]([C@H](C)CC/C=C(\C)C(=O)O)[C@@]1(C)CC3` were 92 µM and 50 µg/mL (≈ 94.6 µM).
On to `CC(=O)O[C@H]1CC[C@]2(C)C3=C([C@H](O)C[C@H]2C1(C)C)[C@]1(C)[C@@H](O)C[C@H]([C@H](C)CC/C=C(\C)C(=O)O)[C@@]1(C)CC3`, for which, in the test on Vero [1], the IC50 came to 39 µM. Further, the MIC in test [2] is 50 µg/mL (≈ 94.2 µM).
Taken in the same sequence, the figures for `CC(=O)O[C@@H]1C[C@H]2C(C)(C)C(=O)CC[C@]2(C)C2=C1[C@]1(C)[C@@H](O)C[C@H]([C@H](C)CC/C=C(\C)C(=O)O)[C@@]1(C)CC2` were > 95 µM and 25 µg/mL (≈ 47.3 µM).
On the same counts, the results for `CC(=O)O[C@@H](C/C=C(\C)C(=O)O)[C@@H](C)[C@H]1CC[C@@]2(C)C3=C(CC[C@]12C)[C@@]1(C)CC[C@H](OC(C)=O)C(C)(C)[C@@H]1CC3=O` are 32 µM and 6.25 µg/mL (≈ 11 µM).
On the same counts, the results for `CC(=O)O[C@@H](C/C=C(\C)C(=O)O)[C@@H](C)[C@H]1C[C@H](O)[C@@]2(C)C3=C(CC[C@]12C)[C@@]1(C)CC[C@H](OC(C)=O)C(C)(C)[C@@H]1C[C@H]3OC(C)=O` are 77 µM and 12.5 µg/mL (≈ 19.8 µM).
Consider `CO[C@@H]1C[C@H]2C(C)(C)[C@H](OC(C)=O)CC[C@]2(C)C2=C1[C@]1(C)[C@@H](OC(C)=O)C[C@H]([C@H](C)[C@H](C/C=C(\C)C(=O)O)OC(C)=O)[C@@]1(C)CC2`, for which, in the test with Vero [1], the IC50 is 26 µM. Also, the minimum inhibitory concentration (MIC) in test [2] was 12.5 µg/mL (≈ 19.4 µM).
On the same counts, the results for `CC(=O)O[C@@H](C/C=C(\C)C(=O)O)[C@@H](C)[C@H]1C[C@H](O)[C@@]2(C)C3=CC[C@H]4C(C)(C)[C@@H](O)CC[C@]4(C)C3=CC[C@]12C` are 95 µM and 6.25 µg/mL (≈ 11.8 µM).
In the test on Vero [1], `CC(=O)O[C@@H](C/C=C(\C)C(=O)O)[C@@H](C)[C@H]1CC[C@@]2(C)C3=C(CC[C@]12C)[C@@]1(C)CC[C@@H](O)C(C)(C)[C@@H]1CC3=O` showed an IC50 of 95 µM. In addition, inhibition of growth in test [2] (MIC) required 50 µg/mL (≈ 94.6 µM).
On the same counts, the results for `CC(=O)O[C@H]1CC[C@]2(C)C3=CC[C@]4(C)[C@@H]([C@H](C)CC/C=C(\C)C(=O)O)CC[C@@]4(C)C3=CC[C@H]2C1(C)C` are > 101 µM and > 50 µg/mL.
In turn, `C/C(=C\CC[C@@H](C)[C@H]1CC[C@@]2(C)C3=C(CC[C@]12C)[C@@]1(C)CCC(=O)C(C)(C)[C@@H]1C[C@H]3O)C(=O)O` registered an IC50 with Vero [1] of 103 µM. In test [2], this compound had an MIC of 3.13 µg/mL (≈ 6.65 µM).
On the same counts, the results for `CC(=O)O[C@@H](C/C=C(\C)C(=O)O)[C@@H](C)[C@H]1CC[C@@]2(C)C3=C(CC[C@]12C)[C@@]1(C)CC[C@H](O)C(C)(C)[C@@H]1CC3=O` are 87 µM and 1.56 µg/mL (≈ 2.95 µM).

The values are drawn from ChEMBL document CHEMBL4118056, “Antitubercular Activity of Mycelium-Associated Ganoderma Lanostanoids” (J Nat Prod, 2017).
